From patent US20240043928A1, “BIOMARKERS FOR MYELODYSPLASTIC SYNDROME (MDS) AND METHODS OF USING THE SAME” (Eisai R&D Management Co., Ltd., priority 2020, published 2024)
Read-outs that look alike come from different tables or passages of the source.

Key:
[1] = system: xenograft models of leukemia expressing mutant SF3B1; details: oral administration; cited from earlier work
[2] = Phase I study NCT02841540: plasma pharmacokinetics; assay type: in vivo, human; details: for Cmax / half-life / AUC(0-t) / Tmax: human, plasma; for Cmax / half-life / AUC(0-t): geometric mean (CV %); for AUC(0-t): read-out: AUC0-24; for Tmax: median
Procedure: (§1) Plasma samples for PK analyses were collected during Cycle 1 on Day 1 and Day 4 (pre-dose and 0.5, 1, 2, 4, 6, 8, 10, and 24 hours post-dose), and pre-dose and 4 hours post-dose on Cycle 1 on Day 15. PK analyses were conducted using Phoenix® VVinNonlin. For pharmacodynamic and biomarker analyses, peripheral blood samples were collected into PAXgene® Blood RNA Tubes (BD Biosciences, San Jose, California) at Cycle 1 Day 1 (pre-dose and 1, 2, 4, 10 and 24 hours post-dose) for all patients. RNA was extracted using Maxwell® simplyRNA Blood Kit (Promega, Madison, Wisconsin). Target engagement (i.e., splicing modulation) was measured by assessing relative expression of representative pre- and mature-mRNA or aberrant and canonical transcripts at post-dose time points comparing to pre-dose, using a customized Nanostring nCounter gene expression panel (NanoString Technologies, Seattle, Washington). For splicing mutation analysis, peripheral blood was collected into PAXgene® Blood DNA Tubes (BD Biosciences, San Jose, California). Baseline splicing mutations were identified using the Focus:Myeloid™ Next Generation Sequencing (NGS) panel determined centrally by Cancer Genetics Inc. (Rutherford, NJ). Biomarker analyses of pretreatment samples were conducted using one-way ANOVA and MedCalc® software. Receiver-Operating-Characteristics (ROC) curves were performed according to the methodology described by Hanley and McNeil (Radiology. 1982;143(1):29-36; see also Zweig and Campbell, Clin Chem. 1993;39(4):561-577).

[3] = Non-human primate toxicity; assay type: in vivo
[4] = system: human acute myeloid leukemia (AML) cell lines, including mutant U2AF1, SRSF2, and SF3B1 cells; details: panel of human AML cell lines incl. mutant U2AF1, SRSF2, SF3B1 cells; cited from earlier work
[5] = system: TMEM14C AJ/CJ ratio and other splicing markers; assay: Phase I study NCT02841540: pharmacodynamics, splicing markers in peripheral blood (Nanostring nCounter panel); assay type: in vivo, human
Procedure: as §1

[6] = patients who experienced RBC TI

## C/C(=C\C=C\[C@@H](C)c1ccccn1)[C@H]1OC(=O)C[C@H](O)CC[C@@](C)(O)[C@@H](OC(=O)N2CCN(C)CC2)/C=C/[C@@H]1C [Compound 1, (2S,3S,4E,6S,7R,10R)-7,10-dihydroxy-3,7-dimethyl-12-oxo-2-[(2E,4E,6R)-6-(pyridine-2-yl)hepta-2,4-dien-2-yl]oxacyclododec-4-en-6-yl-4-methylpiperazine-1-carboxylate]
[1]
  in vivo antitumor activity: induces in vivo antitumor activity
[2]; oral, 1.0 mg once daily
  Cmax: 0.835 ng/mL
  half-life: 306 min
  AUC(0-t): 4.89 ng·h/mL
  Tmax: 2 h
[2]; oral, 2.0 mg once daily
  Cmax: 1.09 ng/mL
  half-life: 324 min
  AUC(0-t): 8.39 ng·h/mL
  Tmax: 2 h
[2]; oral, 3.5 mg once daily
  Cmax: 2.78 ng/mL
  half-life: 324 min
  AUC(0-t): 15.6 ng·h/mL
  Tmax: 1.5 h
[2]; oral, 5.0 mg once daily
  Cmax: 3.94 ng/mL
  half-life: 348 min
  AUC(0-t): 24.5 ng·h/mL
  Tmax: 1 h
[2]; oral, 7.0 mg once daily
  Cmax: 9.61 ng/mL
  half-life: 318 min
  AUC(0-t): 39.4 ng·h/mL
  Tmax: 1 h
[2]; oral, 10 mg once daily
  Cmax: 12.7 ng/mL
  half-life: 330 min
  AUC(0-t): 51 ng·h/mL
  Tmax: 1 h
[2]; oral, 12 mg once daily
  Cmax: 12.2 ng/mL
  half-life: 324 min
  AUC(0-t): 64.7 ng·h/mL
  Tmax: 2 h
[2]; oral, 14 mg once daily
  Cmax: 25.6 ng/mL
  half-life: 306 min
  AUC(0-t): 108 ng·h/mL
  Tmax: 1 h
[2]; oral, 40 mg once daily
  Cmax: 73.3 ng/mL
  half-life: 270 min
  AUC(0-t): 265 ng·h/mL
  Tmax: 0.5 h
[2]; 20 mg once daily
  Cmax: 33.6 ng/mL
  half-life: 306 min
  AUC(0-t): 142 ng·h/mL
  Tmax: 0.75 h
[2]; 30 mg once daily
  Cmax: 34.4 ng/mL
  half-life: 318 min
  AUC(0-t): 159 ng·h/mL
  Tmax: 1.25 h
[2]; preliminary PK analysis
  absorption: rapidly absorbed
  dose dependence of plasma exposure: dose-proportional increase in plasma exposure
[2]; preliminary population PK modeling
  inter-individual variability on clearance/bioavailability: about 34%
[3]
  dose-limiting toxicity (DLT): gastrointestinal distress and colitis
[4]
  growth inhibitory activity: shows growth inhibitory activity
[5]; PBMC samples, NanoString probes, 61 splicing markers
  modulation of splicing markers post-dosing: general modulation of splicing markers post-dosing was observed
[5]; heat map, FIG. 5
  modulation of relative expression of splicing markers: dose-dependent modulation
[5]; [6]
  change of the TMEM14C AJ/CJ ratio with dosing: Downregulation
  time of nadir of the TMEM14C AJ/CJ ratio: 2 to 10 h
